Laboratory results reported in ChEMBL document CHEMBL1141774, “Benzopyran, biphenyl, and tetraoxygenated xanthone derivatives from the twigs of Garcinia nigrolineata” (2005).
Values after ≈ are worked out from the molar mass of the structure shown.

Test system: Staphylococcus aureus
Test: Antibacterial activity against methicillin-resistant Staphylococcus aureus
Type: functional

Row | Structure (SMILES) | MIC [µg/mL]
1 | CC(C)=CCc1c(O)cc2oc3c(O)ccc(CCC(C)(C)O)c3c(=O)c2c1O [NIGROLINEAXANTHONE N] | 4 (≈ 10 µM)
2 | CC1(C)C=Cc2c(cc(O)c3c(=O)c4cc(O)ccc4oc23)O1 [NIGROLINEAXANTHONE F] | 2 (≈ 6.45 µM)
3 | CC(C)=CCc1c(O)cc2oc3c(O)c4c(cc3c(=O)c2c1O)C=CC(C)(C)O4 [LASTIXANTHONE D] | 2 (≈ 5.07 µM)
